# Results published in article PMC8592419 (PLoS ONE, 2021).
# Read-outs that look alike come from different tables or passages of the source. Where a SMILES comes first, the peptide text is derived from it.
# Columns and labels:
# [1] = not given; remark: listed apart in the source
# [2] = tested on: M. abscessus clinical isolate MAB01; test: In vitro susceptibility testing (DST), CLSI broth microdilution; format: cell-based, M. abscessus subsp. abscessus; parameters: key to DST profile, interpretation, Day 3 / DST profile, interpretation, Day 5 / DST profile, interpretation, Day 14: S, susceptible; I, intermediate; R, resistant; details: for MIC: Mycobacteroides abscessus
# Procedure: (§1) Drug susceptibility testing (DST) was performed according to the Clinical and Laboratory Standards Institute (CLSI) guidelines M24-A2 [42] using the broth microdilution method to determine the minimum inhibitory concentration (MIC). […] Colonies were grown at an adjusted cell density to a 0.5 McFarland standard and further diluted to 5×10^5 CFU/ml. […] These were then incubated at 37°C for 3, 5 and 14 days. The MIC was defined as the concentration in which no visible growth was observed. The results were interpreted according to the guidelines of CLSI. Inducible resistance was inferred by changes in MIC values from being susceptible at day 3 to resistant at day 14.
# [3] = tested on: M. abscessus clinical isolate MAB02; test: as above; format: cell-based, M. abscessus subsp. abscessus; parameters: key to DST profile, interpretation, Day 3 / DST profile, interpretation, Day 5 / DST profile, interpretation, Day 14: S, susceptible; I, intermediate; R, resistant; details: for MIC: Mycobacteroides abscessus
# Procedure: as §1
# [4] = tested on: M. abscessus clinical isolate MAB03; test: as above; format: cell-based, M. abscessus subsp. abscessus; parameters: key to DST profile, interpretation, Day 3 / DST profile, interpretation, Day 5 / DST profile, interpretation, Day 14: S, susceptible; I, intermediate; R, resistant; details: for MIC: Mycobacteroides abscessus
# Procedure: as §1
# [5] = tested on: M. abscessus clinical isolate MAB04; test: as above; format: cell-based, M. abscessus subsp. abscessus; parameters: key to DST profile, interpretation, Day 3 / DST profile, interpretation, Day 5 / DST profile, interpretation, Day 14: S, susceptible; I, intermediate; R, resistant; details: for MIC: Mycobacteroides abscessus
# Procedure: as §1
# [6] = tested on: M. abscessus clinical isolate MAB05; test: as above; format: cell-based, M. abscessus subsp. abscessus; parameters: key to DST profile, interpretation, Day 3 / DST profile, interpretation, Day 5 / DST profile, interpretation, Day 14: S, susceptible; I, intermediate; R, resistant; details: for MIC: Mycobacteroides abscessus
# Procedure: as §1
# [7] = tested on: M. abscessus clinical isolate MAB06; test: as above; format: cell-based, M. abscessus subsp. abscessus; parameters: key to DST profile, interpretation, Day 3 / DST profile, interpretation, Day 5 / DST profile, interpretation, Day 14: S, susceptible; I, intermediate; R, resistant; details: for MIC: Mycobacteroides abscessus
# Procedure: as §1
# [8] = tested on: M. abscessus clinical isolate MAB07; test: as above; format: cell-based, M. abscessus subsp. abscessus; parameters: key to DST profile, interpretation, Day 3 / DST profile, interpretation, Day 5 / DST profile, interpretation, Day 14: S, susceptible; I, intermediate; R, resistant; details: for MIC: Mycobacteroides abscessus
# Procedure: as §1
# [9] = tested on: M. abscessus clinical isolate MAB08; test: as above; format: cell-based, M. abscessus subsp. abscessus; parameters: key to DST profile, interpretation, Day 3 / DST profile, interpretation, Day 5 / DST profile, interpretation, Day 14: S, susceptible; I, intermediate; R, resistant; details: for MIC: Mycobacteroides abscessus
# Procedure: as §1
# [10] = tested on: M. abscessus clinical isolate MAB09; test: as above; format: cell-based, M. abscessus subsp. abscessus; parameters: key to DST profile, interpretation, Day 3 / DST profile, interpretation, Day 5 / DST profile, interpretation, Day 14: S, susceptible; I, intermediate; R, resistant; details: for MIC: Mycobacteroides abscessus
# Procedure: as §1
# [11] = tested on: M. abscessus clinical isolate MAB10; test: as above; format: cell-based, M. abscessus subsp. abscessus; parameters: key to DST profile, interpretation, Day 3 / DST profile, interpretation, Day 5 / DST profile, interpretation, Day 14: S, susceptible; I, intermediate; R, resistant; details: for MIC: Mycobacteroides abscessus
# Procedure: as §1
# [12] = tested on: M. abscessus clinical isolate MAB11; test: as above; format: cell-based, M. abscessus subsp. abscessus; parameters: key to DST profile, interpretation, Day 3 / DST profile, interpretation, Day 5 / DST profile, interpretation, Day 14: S, susceptible; I, intermediate; R, resistant; details: for MIC: Mycobacteroides abscessus
# Procedure: as §1
# [13] = 72 h, day 3, read-out: DST profile, MIC value, Day 3
# [14] = 120 h, day 5, read-out: DST profile, MIC value, Day 5
# [15] = 336 h, day 14, read-out: DST profile, MIC value, Day 14
smiles,measurement,setting,value
CC[C@H](C)[C@H](NC(=O)[C@H](CCCCN)NC(=O)[C@H](CCCNC(=N)N)NC(=O)CNC(=O)[C@H](CC(C)C)NC(=O)[C@H](CO)NC(=O)[C@H](CCCNC(=N)N)NC(=O)[C@H](CC(C)C)NC(=O)CNC(=O)CN)C(=O)N[C@@H](CC(C)C)C(=O)N[C@@H](CCCNC(=N)N)C(=O)N[C@@H](C)C(=O)N[C@@H](Cc1c[nH]c2ccccc12)C(=O)N[C@@H](CCCCN)C(=O)N[C@@H](CCCCN)C(=O)N[C@@H](Cc1ccc(O)cc1)C(=O)O [S61] (H-GGLRSLGRKILRAWKKY-OH),"MIC after 3 days, MAB01 and MAB03",,< 50 µg/mL
same,"MIC within 24 h, majority of isolates (10/16)",[1],< 50 µg/mL
"CC[C@H]1OC(=O)[C@H](C)[C@@H](O[C@H]2C[C@@](C)(OC)[C@@H](O)[C@H](C)O2)[C@H](C)[C@@H](O[C@@H]2O[C@H](C)C[C@H](N(C)C)[C@H]2O)[C@](C)(OC)C[C@@H](C)C(=O)[C@H](C)[C@@H](O)[C@]1(C)O [CLA, Clarithromycin]",MIC,[2]; [13],1020 µg/mL
same,MIC,[2]; [14],1020 µg/mL
same,MIC,[2]; [15],1020 µg/mL
same,"DST profile, interpretation, Day 3","[2]; day 3, CLSI interpretation",R
same,"DST profile, interpretation, Day 5","[2]; day 5, CLSI interpretation",R
same,"DST profile, interpretation, Day 14","[2]; day 14, CLSI interpretation",R
same,MIC,[3]; [13],1 µg/mL
same,MIC,[3]; [14],8 µg/mL
same,MIC,[3]; [15],64 µg/mL
same,"DST profile, interpretation, Day 3","[3]; day 3, CLSI interpretation",S
same,"DST profile, interpretation, Day 5","[3]; day 5, CLSI interpretation",R
same,"DST profile, interpretation, Day 14","[3]; day 14, CLSI interpretation",R
same,MIC,[4]; [13],8 µg/mL
same,MIC,[4]; [14],8 µg/mL
same,MIC,[4]; [15],8 µg/mL
same,"DST profile, interpretation, Day 3","[4]; day 3, CLSI interpretation",R
same,"DST profile, interpretation, Day 5","[4]; day 5, CLSI interpretation",R
same,"DST profile, interpretation, Day 14","[4]; day 14, CLSI interpretation",R
same,MIC,[5]; [13],2 µg/mL
same,MIC,[5]; [14],16 µg/mL
same,MIC,[5]; [15],64 µg/mL
same,"DST profile, interpretation, Day 3","[5]; day 3, CLSI interpretation",S
same,"DST profile, interpretation, Day 5","[5]; day 5, CLSI interpretation",R
same,"DST profile, interpretation, Day 14","[5]; day 14, CLSI interpretation",R
same,MIC,[6]; [13],4 µg/mL
same,MIC,[6]; [14],8 µg/mL
same,MIC,[6]; [15],16 µg/mL
same,"DST profile, interpretation, Day 3","[6]; day 3, CLSI interpretation",I
same,"DST profile, interpretation, Day 5","[6]; day 5, CLSI interpretation",R
same,"DST profile, interpretation, Day 14","[6]; day 14, CLSI interpretation",R
same,MIC,[7]; [13],0.5 µg/mL
same,MIC,[7]; [14],2 µg/mL
same,MIC,[7]; [15],32 µg/mL
same,"DST profile, interpretation, Day 3","[7]; day 3, CLSI interpretation",S
same,"DST profile, interpretation, Day 5","[7]; day 5, CLSI interpretation",S
same,"DST profile, interpretation, Day 14","[7]; day 14, CLSI interpretation",R
same,MIC,[8]; [13],4 µg/mL
same,MIC,[8]; [14],16 µg/mL
same,MIC,[8]; [15],16 µg/mL
same,"DST profile, interpretation, Day 3","[8]; day 3, CLSI interpretation",I
same,"DST profile, interpretation, Day 5","[8]; day 5, CLSI interpretation",R
same,"DST profile, interpretation, Day 14","[8]; day 14, CLSI interpretation",R
same,MIC,[9]; [13],1 µg/mL
same,MIC,[9]; [14],2 µg/mL
same,MIC,[9]; [15],8 µg/mL
same,"DST profile, interpretation, Day 3","[9]; day 3, CLSI interpretation",S
same,"DST profile, interpretation, Day 5","[9]; day 5, CLSI interpretation",S
same,"DST profile, interpretation, Day 14","[9]; day 14, CLSI interpretation",R
same,MIC,[10]; [13],0.25 µg/mL
same,MIC,[10]; [14],8 µg/mL
same,MIC,[10]; [15],8 µg/mL
same,"DST profile, interpretation, Day 3","[10]; day 3, CLSI interpretation",S
same,"DST profile, interpretation, Day 5","[10]; day 5, CLSI interpretation",R
same,"DST profile, interpretation, Day 14","[10]; day 14, CLSI interpretation",R
same,MIC,[11]; [13],1020 µg/mL
same,MIC,[11]; [14],1020 µg/mL
same,MIC,[11]; [15],1020 µg/mL
same,"DST profile, interpretation, Day 3","[11]; day 3, CLSI interpretation",R
same,"DST profile, interpretation, Day 5","[11]; day 5, CLSI interpretation",R
same,"DST profile, interpretation, Day 14","[11]; day 14, CLSI interpretation",R
same,MIC,[12]; [13],0.5 µg/mL
same,MIC,[12]; [14],16 µg/mL
same,"DST profile, interpretation, Day 3","[12]; day 3, CLSI interpretation",S
same,"DST profile, interpretation, Day 5","[12]; day 5, CLSI interpretation",R
same,"DST profile, interpretation, Day 14","[12]; day 14, CLSI interpretation",R
